Results as given in patent publication US8859574B2 (IRM LLC, priority 2008, dated 2014).

Target: T1, IGF-1R Ba/F3 (Homo sapiens, UniProt P08069)
T1 construct: fused on or other part: TEL- (or BCR-) IGF-1R in Ba/F3: the kinase part holds the site
Assay: Ba/F3 Cell Viability Inhibition Assay (IGF-1R Ba/F3)
Assay type: cell-based, murine
Settings: Tel-TK transformed Ba/F3 cells, 48 hours, Britelite luminescence
Procedure, shortened: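 IL-3-independent murine Ba/F3 cells transformed with a TEL/BCR-fused IGF-1R kinase were seeded at 3750 cells/well and exposed to serially diluted compound for 48 h at 37 °C. Viability was read by Britelite luminescence. IC50 is the concentration giving 50% of DMSO-control viability, from a logistic fit.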

T1 sequence (P08069 999-1274 limits assumed): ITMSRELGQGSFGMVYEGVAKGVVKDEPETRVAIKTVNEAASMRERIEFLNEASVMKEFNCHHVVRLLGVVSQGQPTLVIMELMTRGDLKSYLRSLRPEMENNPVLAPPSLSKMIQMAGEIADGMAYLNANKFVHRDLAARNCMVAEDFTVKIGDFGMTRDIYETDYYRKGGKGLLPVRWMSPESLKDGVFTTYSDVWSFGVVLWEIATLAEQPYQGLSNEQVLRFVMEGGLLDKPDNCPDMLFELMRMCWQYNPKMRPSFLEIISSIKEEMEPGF

SMILES	IC50
Cc1cc(Nc2nc(Nc3cc(C)c(C4CCN(C5CCC5)CC4)cc3F)ncc2Cl)n[nH]1 [Compound 272, 5-chloro-N2-(4-(1-cyclobutylpiperidin-4-yl)-2-fluoro-5-methylphenyl)-N4-(5-methyl-1H-pyrazol-3-yl)pyrimidine-2,4-diamine]	0.05 µM
Cc1cc(Nc2nc(Nc3cc(C)c(C4CCN(CCc5nc(C(C)C)no5)CC4)cc3C)ncc2Cl)n[nH]1 [Compound 269, 5-Chloro-N2-(4-(1-(2-(3-isopropyl-1,2,4-oxadiazol-5-yl)ethyl)piperidin-4-yl)-2,5-dimethylphenyl)-N4-(5-methyl-1H-pyrazol-3-yl)pyrimidine-2,4-diamine]	0.039 µM
Cc1cc(Nc2nc(Nc3cc(C)c(C4CCN(Cc5cnccn5)CC4)cc3F)ncc2Cl)n[nH]1 [Compound 315, 5-chloro-N2-(2-fluoro-5-methyl-4-(1-(pyrazin-2-ylmethyl)piperidin-4-yl)phenyl)-N4-(5-methyl-1H-pyrazol-3-yl)pyrimidine-2,4-diamine]	0.036 µM
Cc1cc(Nc2nc(Nc3cc(C)c(C4CCN(C[C@H](O)C(F)(F)F)CC4)cc3C)ncc2C)n[nH]1 [Compound 179, (S)-3-(4-(2,5-dimethyl-4-(5-methyl-4-(5-methyl-1H-pyrazol-3-ylamino)pyrimidin-2-ylamino)phenyl)piperidin-1-yl)-1,1,1-trifluoropropan-2-ol]	0.12 µM
Cc1cc(Nc2nc(Nc3cc(C)c(C4CCN(C(=O)CN5C(C)CCCC5C)CC4)cc3C)ncc2Cl)n[nH]1 (stereo not drawn) [Compound 103, 1-(4-(4-(5-chloro-4-(5-methyl-1H-pyrazol-3-ylamino)pyrimidin-2-ylamino)-2,5-dimethylphenyl)piperidin-1-yl)-2-(2,6-dimethylpiperidin-1-yl)ethanone]	0.009 µM
CCNC1(C(=O)N2CCC(c3cc(C)c(Nc4ncc(Cl)c(Nc5cc(C)[nH]n5)n4)cc3C)CC2)CC1 [Compound 170, (4-(4-(5-chloro-4-(5-methyl-1H-pyrazol-3-ylamino)pyrimidin-2-ylamino)-2,5-dimethylphenyl)piperidin-1-yl)(1-(ethylamino)cyclopropyl)methanone]	0.003 µM
Cc1cc(C2CCN(C3CC3)CC2)c(C)cc1Nc1ncc(Cl)c(Nc2cc(C3CC3)[nH]n2)n1 [Compound 258, 5-chloro-N4-(5-cyclopropyl-1H-pyrazol-3-yl)-N2-(4-(1-cyclopropylpiperidin-4-yl)-2,5-dimethylphenyl)pyrimidine-2,4-diamine]	0.026 µM
COc1cc(Nc2ncc(Cl)c(Nc3cc(C)[nH]n3)n2)c(C)cc1C1CCN(C)CC1 [Compound 219, 5-chloro-N2-(5-methoxy-2-methyl-4-(1-methylpiperidin-4-yl)phenyl)-N4-(5-methyl-1H-pyrazol-3-yl)pyrimidine-2,4-diamine]	0.009 µM
CNC(=O)CN1CCC[C@H](c2cc(C)c(Nc3ncc(Cl)c(Nc4cc(C)[nH]n4)n3)cc2C)C1 (single isomer, unassigned) [Compound 207]	0.026 µM
Cc1cc(Nc2nc(Nc3cc(C)c(C4CCN(C(=O)C5(N(C)C)CCC5)CC4)cc3C)ncc2Cl)n[nH]1 [Compound 92, (4-(4-(5-chloro-4-(5-methyl-1H-pyrazol-3-ylamino)pyrimidin-2-ylamino)-2,5-dimethylphenyl)piperidin-1-yl)(1-(dimethylamino)cyclobutyl)methanone]	0.015 µM
CNC(=O)C(C)N1CCC(c2cc(C)c(Nc3ncc(Cl)c(Nc4cc(C)[nH]n4)n3)cc2C)CC1 (stereo not drawn) [Compound 52, 2-(4-(4-(5-chloro-4-(5-methyl-1H-pyrazol-3-ylamino)pyrimidin-2-ylamino)-2,5-dimethylphenyl)piperidin-1-yl)-N-methylpropanamide]	0.006 µM
CCS(=O)(=O)CCN1CCC(c2cc(F)c(Nc3ncc(Cl)c(Nc4cc(C)[nH]n4)n3)cc2C)CC1 [Compound 57, 5-chloro-N2-(4-(1-(2-(ethylsulfonyl)ethyl)piperidin-4-yl)-2-fluoro-5-methylphenyl)-N4-(5-methyl-1H-pyrazol-3-yl)pyrimidine-2,4-diamine]	0.021 µM
Cc1cc(Nc2nc(Nc3cc(Cl)c(C4CCN(C5CCS(=O)(=O)C5)CC4)cc3C)ncc2Cl)n[nH]1 (stereo not drawn) [Compound 144, 5-chloro-N^2-(2-methyl-5-chloro-4-(1-(tetrahydro-1,1-dioxido-3-thienyl)piperidin-4-yl)phenyl)-N^4-(5-methyl-1H-pyrazol-3-yl)pyrimidine-2,4-diamine]	0.007 µM
Cc1cc(Nc2nc(Nc3cc(C)c(C4CCN(S(=O)(=O)CCCN5CC[C@@H](O)C5)CC4)cc3C)ncc2Cl)n[nH]1 [Compound 234, (R)-1-(3-(4-(4-(5-chloro-4-(5-methyl-1H-pyrazol-3-ylamino)pyrimidin-2-ylamino)-2,5-dimethylphenyl)piperidin-1-ylsulfonyl)propyl)pyrrolidin-3-ol]	0.073 µM
Cc1cc(Nc2nc(Nc3cc(C)c([C@H]4CCN[C@@H](C)C4)cc3F)ncc2Cl)n[nH]1 (relative stereo) [Compound 280, 5-chloro-N2-(2-fluoro-5-methyl-4-((cis)-2-methylpiperidin-4-yl)phenyl)-N4-(5-methyl-1H-pyrazol-3-yl)pyrimidine-2,4-diamine]	0.163 µM
Cc1cc(Nc2nc(Nc3cc(C)c(C4CCN(C(=O)C5CCCC(=O)N5)CC4)cc3F)ncc2Cl)n[nH]1 (stereo not drawn) [Compound 142, 6-(4-(4-(5-chloro-4-(5-methyl-1H-pyrazol-3-ylamino)pyrimidin-2-ylamino)-5-fluoro-2-methylphenyl)piperidine-1-carbonyl)piperidin-2-one]	0.282 µM
CNC(=O)CN1CCC(c2cc(C)c(Nc3ncc(Cl)c(Nc4cc(C5CC5)[nH]n4)n3)cc2C)CC1 [Compound 33, 2-(4-(4-(5-chloro-4-(5-cyclopropyl-1H-pyrazol-3-ylamino)pyrimidin-2-ylamino)-2,5-dimethylphenyl)piperidin-1-yl)-N-methylacetamide]	0.006 µM
Cc1cc(Nc2nc(Nc3cc(C)c(C4CCN(C5CCN(S(C)(=O)=O)C5)CC4)cc3F)ncc2Cl)n[nH]1 (stereo not drawn) [Compound 301, 5-chloro-N2-(2-fluoro-5-methyl-4-(1-(1-(methylsulfonyl)pyrrolidin-3-yl)piperidin-4-yl)phenyl)-N4-(5-methyl-1H-pyrazol-3-yl)pyrimidine-2,4-diamine]	0.038 µM
Cc1cc(Nc2nc(Nc3cc(C)c(C4CCN(C(=O)CCN(C)C)CC4)cc3F)ncc2Cl)n[nH]1 [Compound 78, 1-(4-(4-(5-chloro-4-(5-methyl-1H-pyrazol-3-ylamino)pyrimidin-2-ylamino)-5-fluoro-2-methylphenyl)piperidin-1-yl)-3-(dimethylamino)propan-1-one]	0.138 µM
COc1cc(Nc2ncc(Cl)c(Nc3cc(C)[nH]n3)n2)c(C)cc1C1CCN(C(=O)CN(C)C)CC1 [Compound 76, 1-(4-(4-(5-chloro-4-(5-methyl-1H-pyrazol-3-ylamino)pyrimidin-2-ylamino)-2-methoxy-5-methylphenyl)piperidin-1-yl)-2-(dimethylamino)ethanone]	0.009 µM
Cc1cc(Nc2nc(Nc3cc(C)c(C4CCCCN4C[C@H](O)C(F)(F)F)cc3C)ncc2Cl)n[nH]1 (stereo partly drawn) [Compound 197, (2S)-3-(2-(4-(5-chloro-4-(5-methyl-1H-pyrazol-3-ylamino)pyrimidin-2-ylamino)-2,5-dimethylphenyl)piperidin-1-yl)-1,1,1-trifluoropropan-2-ol]	0.21 µM
